{"source": "patent US9113629B2", "about": "“4-amino-6-(4-substituted-phenyl)-picolinates and 6-amino-2-(4-substituted-phenyl)-pyrimidine-4-carboxylates and their use as herbicides” (DOW AGROSCIENCES LLC, priority 2013, dated 2015)", "key": {"[1]": {"system": "Key Broadleaf Weed and Crop Species", "assay": "Post-emergent Test II herbicidal activity (Table 5)", "format": "in vivo", "conditions": "post-emergence, 336 h, post-emergent, 14 days after application; for pest or weed control at 70 g/ha: application rate 70 g ai/ha; for pest or weed control at 140 g/ha: application rate 140 g ai/ha", "in_short": "(§1)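 Spray rates: a highest rate plus ½×, ¼×, ⅛×, 1/16×, all delivered at 187 L/ha to plants at the first–second true leaf stage. Readout is a visual percent injury score at 14 d, where 100 means complete kill.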"}, "[2]": {"system": "Key Grass and Sedge Weeds as well as Grass Crops", "assay": "Post-emergent Test II herbicidal activity (Table 6)", "format": "in vivo", "conditions": "post-emergence, 336 h; for pest or weed control at 70 g/ha: application rate 70 g ai/ha; for pest or weed control at 140 g/ha: application rate 140 g ai/ha", "in_short": "as §1"}, "[3]": {"conditions": "ABUTH: velvetleaf (Abutilon theophrasti), read-out: Visual Growth Reduction (%) 14 Days After Application, ABUTH"}, "[4]": {"conditions": "AMARE: redroot pigweed (Amaranthus retroflexus), read-out: Visual Growth Reduction (%) 14 Days After Application, AMARE"}, "[5]": {"conditions": "BRSNN: oilseed-rape, canola (Brassica napus), read-out: Visual Growth Reduction (%) 14 Days After Application, BRSNN"}, "[6]": {"conditions": "CHEAL: lambsquarters (Chenopodium album), read-out: Visual Growth Reduction (%) 14 Days After Application, CHEAL"}, "[7]": {"conditions": "EPHHL: wild poinsettia (Euphorbia heterophylla), read-out: Visual Growth Reduction (%) 14 Days After Application, EPHHL"}, "[8]": {"conditions": "HELAN: sunflower (Helianthus annuus), read-out: Visual Growth Reduction (%) 14 Days After Application, HELAN"}, "[9]": {"conditions": "VIOTR: wild pansy (Viola tricolor), read-out: Visual Growth Reduction (%) 14 Days After Application, VIOTR"}, "[10]": {"conditions": "CYPES: yellow nutsedge (Cyperus esculentus), read-out: Visual Growth Reduction (%) 14 Days After Application, CYPES"}, "[11]": {"conditions": "DIGSA: crabgrass (Digitaria sanguinalis), read-out: Visual Growth Reduction (%) 14 Days After Application, DIGSA"}, "[12]": {"conditions": "ECHCG: barnyardgrass (Echinochloa crus-galli), read-out: Visual Growth Reduction (%) 14 Days After Application, ECHCG"}, "[13]": {"conditions": "ORYSA: rice (Oryza sativa), read-out: Visual Growth Reduction (%) 14 Days After Application, ORYSA"}, "[14]": {"conditions": "SETFA: giant foxtail (Setaria faberi), read-out: Visual Growth Reduction (%) 14 Days After Application, SETFA"}, "[15]": {"conditions": "SORVU: grain sorghum (Sorghum vulgare), read-out: Visual Growth Reduction (%) 14 Days After Application, SORVU"}, "[16]": {"conditions": "TRZSS (wheat, Triticum aestivum), read-out: Visual Growth Reduction (%) 14 Days After Application, TRZSS"}, "[17]": {"conditions": "ZEAMX: maize, corn (Zea mays), read-out: Visual Growth Reduction (%) 14 Days After Application, ZEAMX"}}, "note": "Where two headings read alike, the source gives them in different places.", "data": [{"compound": "Cc1cc(F)c(-c2nc(C(=O)O)c(Cl)c(N)c2F)cc1F", "note": "[Compound 194]", "values": [{"measurement": "pest or weed control at 70 g/ha", "setting": "[1]; [3]", "value": "60 to 74", "unit": "%"}, {"measurement": "pest or weed control at 140 g/ha", "setting": "[1]; [3]", "value": "75 to 84", "unit": "%"}, {"measurement": "pest or weed control at 70 g/ha", "setting": "[1]; [4]", "value": "95 to 100", "unit": "%"}, {"measurement": "pest or weed control at 140 g/ha", "setting": "[1]; [4]", "value": "95 to 100", "unit": "%"}, {"measurement": "pest or weed control at 70 g/ha", "setting": "[1]; [5]", "value": "60 to 74", "unit": "%"}, {"measurement": "pest or weed control at 140 g/ha", "setting": "[1]; [5]", "value": "75 to 84", "unit": "%"}, {"measurement": "pest or weed control at 70 g/ha", "setting": "[1]; [6]", "value": "75 to 84", "unit": "%"}, {"measurement": "pest or weed control at 140 g/ha", "setting": "[1]; [6]", "value": "85 to 94", "unit": "%"}, {"measurement": "pest or weed control at 70 g/ha", "setting": "[1]; [7]", "value": "85 to 94", "unit": "%"}, {"measurement": "pest or weed control at 140 g/ha", "setting": "[1]; [7]", "value": "85 to 94", "unit": "%"}, {"measurement": "pest or weed control at 70 g/ha", "setting": "[1]; [8]", "value": "85 to 94", "unit": "%"}, {"measurement": "pest or weed control at 140 g/ha", "setting": "[1]; [8]", "value": "95 to 100", "unit": "%"}, {"measurement": "pest or weed control at 70 g/ha", "setting": "[1]; [9]", "value": "0 to 29", "unit": "%"}, {"measurement": "pest or weed control at 140 g/ha", "setting": "[1]; [9]", "value": "0 to 29", "unit": "%"}, {"measurement": "pest or weed control at 70 g/ha", "setting": "[2]; [10]", "value": "0 to 29", "unit": "%"}, {"measurement": "pest or weed control at 140 g/ha", "setting": "[2]; [10]", "value": "0 to 29", "unit": "%"}, {"measurement": "pest or weed control at 70 g/ha", "setting": "[2]; [11]", "value": "0 to 29", "unit": "%"}, {"measurement": "pest or weed control at 140 g/ha", "setting": "[2]; [11]", "value": "0 to 29", "unit": "%"}, {"measurement": "pest or weed control at 70 g/ha", "setting": "[2]; [12]", "value": "0 to 29", "unit": "%"}, {"measurement": "pest or weed control at 140 g/ha", "setting": "[2]; [12]", "value": "0 to 29", "unit": "%"}, {"measurement": "pest or weed control at 70 g/ha", "setting": "[2]; [13]", "value": "0 to 29", "unit": "%"}, {"measurement": "pest or weed control at 140 g/ha", "setting": "[2]; [13]", "value": "0 to 29", "unit": "%"}, {"measurement": "pest or weed control at 70 g/ha", "setting": "[2]; [14]", "value": "45 to 59", "unit": "%"}, {"measurement": "pest or weed control at 140 g/ha", "setting": "[2]; [14]", "value": "60 to 74", "unit": "%"}, {"measurement": "pest or weed control at 70 g/ha", "setting": "[2]; [15]", "value": "0 to 29", "unit": "%"}, {"measurement": "pest or weed control at 140 g/ha", "setting": "[2]; [15]", "value": "0 to 29", "unit": "%"}, {"measurement": "pest or weed control at 70 g/ha", "setting": "[2]; [16]", "value": "0 to 29", "unit": "%"}, {"measurement": "pest or weed control at 140 g/ha", "setting": "[2]; [16]", "value": "0 to 29", "unit": "%"}, {"measurement": "pest or weed control at 70 g/ha", "setting": "[2]; [17]", "value": "0 to 29", "unit": "%"}, {"measurement": "pest or weed control at 140 g/ha", "setting": "[2]; [17]", "value": "0 to 29", "unit": "%"}, {"measurement": "melting point", "value": "167.4 to 170.2", "unit": "°C"}]}]}
